“And” between values parts separate entries of the source, which are not always exact repeats. Identical values can stand only once. Like-named read-outs stand apart in the source and are kept apart here.
Columns and labels:
[1] = breast cancer patients, 30 minutes following subcutaneous injection, n=3, Rodgers 2005, cited from earlier work
[2] = Plasma Ang-(1-7) level after intravenous infusion in mice; format: in vivo, mouse
[3] = system: ZR-75-1 breast cancer cells; conditions: U.S. Pat. No. 7,375,073; cited from earlier work
[4] = system: A549 human lung tumor xenografts; assay: A549 human lung tumor xenograft in athymic mice, subcutaneous injection; format: in vivo, mouse
Experimental: For reverse-transcriptase real-time PCR, RNA was isolated from cells or tissue, using the TRIzol reagent (GIBCO Invitrogen Corp., Carlsbad, Calif.), as directed by the manufacturer. The RNA concentration and integrity were assessed using an Agilent 2100 Bioanalyzer with an RNA 6000 nano LabChip (Agilent Technologies, Palo Alto, Calif.). Approximately 1 μg of total RNA was reverse transcribed using avian myeloblastosis virus reverse transcriptase (RT) in a 20 μL mixture containing deoxyribonucleotides, random hexamers and RNase inhibitor in RT buffer. Heating the RT reaction product at 95° C. terminated the reaction. For real-time polymerase chain reaction (PCR), 2 μL of the resultant cDNA was added to TaqMan Universal PCR Master Mix (Applied Biosystems, Foster City, Calif.) with a gene-specific primer/probe set (Applied Biosystems, Foster City, Calif.) and amplification was performed on an ABI 7000 Sequence Detection System. The mixtures were heated at 50° C. for 2 min, at 95° C. for 10 min followed by 40 cycles at 95° C. for 15 sec and 60° C. for 1 min. All reactions were performed in triplicate and 18S ribosomal RNA, amplified using the TaqMan Ribosomal RNA Control Kit (Applied Biosystems), served as an internal control. The results were quantified as Ct values, where Ct is defined as the threshold cycle of PCR at which amplified product is first detected, and expressed as the ratio of target/control (Relative Gene Expression).
Male or female athymic mice (15-20 g, 2-4 weeks of age, Charles River Laboratory, Wilmington, Mass.) were housed in cages with HEPA-filtered air (12-hour light/dark cycle) and ad libitum access to food and autoclaved water. All procedures complied with the policies of the Wake Forest University Animal Care and Use Committee. Mice were inoculated subcutaneously in the lower left flank with approximately 1.9×10^6 A549 lung cancer cells or ZR-75-1 breast cancer cells suspended in 200 μL of cold Matrigel (BD Biosciences, Bedford, Mass.). […] The mice were anesthetized by inhalation with 1.5% isoflurane. […] The minipumps also contained heparin (25 U/mL) to maintain patency of the catheter. On day 28 of the infusion, the animals were anesthetized with halothane and sacrificed by decapitation. Alternatively, the mice received daily subcutaneous injections of Ang-(1-7) in saline or saline alone.
The mice were injected daily, for 5 days, followed by a 2 day rest period, and the injections were continued for 7 cycles. Tumor size was measured every 3 days during the treatment period, using a caliper, and tumor volume was calculated using the formula for a semi-ellipsoid. The tumors continued to grow in the mice treated with saline (FIG. 33). […] It should be noted that a number of the saline control mice were sacrificed after 1 month due to excessive tumor size. Only a single control mouse remained in the study by the 40th day, while the Ang-(1-7)-treated mice thrived.

caspase-3 = assay: Caspase-3 activity in A549 cell lysates, fluorometric assay; format: cell-based, human; conditions: A549 cells, 100 nM; maximal at 16 and 24 h
Experimental: The specificity of the activity of each caspase substrate was also verified by assays in the presence of specific inhibitors. […] Caspase-3 activity was measured by a fluorometric assay using Ac-DEVD-AFC (Acetylated-Asp-Glu-Val-Asp-7-amino-4-trifluoromethylcoumarin) (SEQ ID NO: 9) as a specific substrate for caspase-3 and Z-DEVD-CHO as a selective caspase-3 inhibitor. Caspase-8 activity was measured by a fluorometric assay using Ac-LETD-AFC (Acetylated-Leu-Glu-Thr-Asp-7-amino-4-trifluoromethylcoumarin) (SEQ ID NO: 10) as a specific substrate and Z-LETD-CHO as a selective caspase-8 inhibitor. The data are presented as relative fluorescence units (RFU).

[5] = system: ZR-75-1 breast cancer cells; format: cell-based, human
Experimental: Unless otherwise stated, cells were grown in DMEM with 10% fetal bovine serum (FBS), […] in a humidified 37° C. incubator gassed with 5% CO2 and 95% room air. Cells were grown to subconfluence in either 24-well cluster plates or 100 mm dishes and made quiescent by treatment for 48 h with serum-depleted growth media, prior to the experiments outlined below to measure cell growth (^3H-thymidine incorporation), cell signaling or apoptosis.
[…] Subsequently, the cell monolayer was washed with cold phosphate-buffered saline (PBS; 50 mM NaPO4, 120 mM NaCl, pH=7.2). The adherent cells were precipitated with cold 10% TCA (4° C. for 30 min) and dissolved in 0.2% SDS in 0.1 N NaOH. Incorporated ^3H-thymidine was determined by liquid scintillation spectrometry, as previously described (Freeman, E. J. et al., Hypertension, 1996, 28:104-108). Growth inhibition was defined as a reduction in the amount of ^3H-thymidine incorporation as compared to the mitogen-stimulated controls.

[6] = 1000 μg/kg/day, radioimmunoassay
[7] = subcutaneous 1000 μg/kg/day, versus saline

CC[C@H](C)[C@H](NC(=O)[C@H](Cc1ccc(O)cc1)NC(=O)[C@@H](NC(=O)[C@H](CCCNC(=N)N)NC(=O)[C@@H](N)CC(=O)O)C(C)C)C(=O)N[C@@H](Cc1c[nH]cn1)C(=O)N1CCC[C@H]1C(=O)O [Ang-(1-7), Asp-Arg-Val-Tyr-Ile-His-Pro]
plasma Ang-(1-7) ([1]; 100 μg/kg/day): 3209.5 pg/mL and 3.6 nM
plasma Ang-(1-7) [1]: 49.43 pg/mL and 0.055 nM
increase of plasma concentration over saline-infused animals ([2]; 24 μg/kg/h intravenous infusion, Ki-ras^G12C mice): 5 fold
plasma concentration of the heptapeptide ([2]; 24 μg/kg/h intravenous infusion, Ki-ras^G12C mice, 84 days, n=8, saline 38.7±11.45): 0.20132 ± 0.099 ng/mL
level at 2016 h ([2]; Ki-ras^G12C, mouse, plasma, iv, 24 ug/kg/h, read-out: plasma concentration of the heptapeptide): 0.201 ± 0.099 ng/mL
level at time molar at 1728 h ([2]; mouse, plasma, 24 ug/kg/h, 24 μg/kg/h intravenous, 72 days of infusion into mice, n=8, from 0.043±0.013): 0.224 ± 0.11 nM
inhibition of PDGF- or EGF-stimulated ^3H-thymidine incorporation [3]: at least 50%
prostacyclin synthase ([4]; 1000 μg/kg/day): not altered
PGE2 in tumors [4, 6]: reduced
PGI2 in tumors [4, 6]: increased
tumor growth ([4]; subcutaneous 1000 μg/kg/day, 5 days on/2 days rest, 7 cycles): significantly reduced
COX-2 in tumors [4, 7]: marked down-regulation
down-regulation in VEGF mRNA in tumor tissue [4, 7]: about 40%
reduction in prostaglandin E2 synthase (PGES) mRNA in tumors [4, 7]: greater than 50%
time-dependent increase in caspase-3 activity (caspase-3): about 2 fold
IC50 ([5]; 48 h): 0.02 nM
maximal inhibition ([5]; ZR-75-1): 37.2±6.1
^3H-thymidine incorporation over time of treatment ([5]; ZR-75-1, 1% FBS, daily addition of 100 nM): progressively reduced

From patent US20140296143A1, “Angiotensin-(1-7) As A Chemoprevention Agent” (Wake Forest Innovations, priority 2008, published 2014)
